Measured values reported in US20230102483A1, “[6R]-MTHF IN 5-FU BASED CHEMOTHERAPY OF LEFT-SIDED COLORECTAL CANCER” (Isofol Medical AB, priority 2021, published 2023).

Assays:
[1] = leucovorin vs levoleucovorin; cited from earlier work
[2] = cited from earlier work
[3] = tested on: metastatic colorectal cancer tumors (Stadium IV CRC patients); assay: Clinical Study ISO-CC-005 (Phase I/IIa) safety extension cohorts and Follow-up study: tumour response by CT/MRI per RECIST 1.1; format: in vivo, human
Excerpt: As used herein, the term ORR shall refer to the Objective Response Rate, ie. the proportion of patients with reduction in tumor burden of a predefined amount. […] (Note: the appearance of one or more new lesions is also considered progression). […] Shortly after, applicant started two additional treatment groups in 2018 to generate more safety and efficacy data, i.e. the safety extension Cohort #18 (Treatment Arm #4) and Cohort #19 (Treatment Arm #6). The aim was to evaluate as many patients as possible from the additional treatment groups after a treatment period of 16 weeks or more. On 30 Sep. 2020, applicant announced response assessment data from the two safety extension cohorts (31 patients) treated for 16 weeks or longer (press release: 55% Overall Response Rate on the safety extension cohorts of the ISO-CC-005 Phase I/IIa study|BioSpace). […] These patients had been treated with the selected dose regimen of 120 mg/m2 arfolitixorin and 5-fluorouracil (5-FU) with either irinotecan or oxaliplatin ([…]). Out of the 31 patients, 17 were treated with an ARFOX regimen. Clinical Study ISO-CC-005 was an exploratory, Phase I/II multiple-centre study to be carried out in Stadium IV CRC patients. The study was designed to show clinical relevance for patients by characterizing the tolerability of four arfolitixorin dose levels (30, 60, 120, and 240 mg/m2) in six different standard clinical settings in the presence of fixed doses of 5-FU alone or in combination with either oxaliplatin, irinotecan, or oxaliplatin and bevacizumab. [table] The study was divided in the Main Study and the Follow-up Study. In the Main Study, patients received study treatment with arfolitixorin during eight weeks. Patients eligible for the Follow-up study could participate until reaching progress, but no longer than 18 months. […] The goal with the Dose-finding part of the Main Study was to establish the arfolitixorin dose level assessed as having the most favourable profile, i.e. the selected phase 2 dose (SP2D). […] Response was measured in short- and long-term assessments. […]

In the case of Nc1nc(=O)c2c([nH]1)NC[C@H](CNc1ccc(C(=O)N[C@@H](CCC(=O)O)C(=O)O)cc1)N2C=O [1-LV], the pharmacokinetic comparison [1] is given as “pharmacokinetically identical” and the metabolic conversion ([2]; In vitro) is given as “rapidly converted to the biologically available methyl-tetrahydrofolate form”.

For Nc1nc2c(c(=O)[nH]1)N(C=O)C(CNc1ccc(C(=O)N[C@@H](CCC(=O)O)C(=O)O)cc1)CN2 (stereo partly shown) [Leucovorin, 5-formyl tetrahydrofolic acid], the pharmacokinetic comparison [1] is listed as “pharmacokinetically identical”.

For Nc1nc2c(c(=O)[nH]1)N1CN(c3ccc(C(=O)N[C@@H](CCC(=O)O)C(=O)O)cc3)C[C@H]1CN2 [[6R]-5,10-MTHF, [6R]-5,10-methylenetetrahydrofolate], the “progression of tumors between 8 and 16 weeks after initiating treatment” value ([3]; ISO-CC-005, treatment period of at least 8 weeks) was “No statistically significant progression”, the “best ORR, patients diagnosed with LCRC or RCA” value ([3]; left-sided or rectal primary tumor (18 patients), 16 weeks and beyond, 120 mg/m2 arfolitixorin) was > 60% and the “best ORR, only LCRC (without the rectal cases)” value ([3]; left-sided primary tumor (13 patients), 16 weeks and beyond, 120 mg/m2 arfolitixorin) was ~70%.

In the case of Nc1nc2c(c(=O)[nH]1)N(C=O)[C@H](CNc1ccc(C(=O)N[C@@H](CCC(=O)O)C(=O)O)cc1)CN2 [d-LV], the excretion ([2]; kidneys) is given as “slowly excreted by the kidneys”.
